Paper PMC6316070 (Marine Drugs, 2018)
pIC50: −log10 of the molar value.

Legend:
Settings in all cases: human
in vitro [1] = assay: in vitro
Experimental: (§1) The in vitro cytotoxic effects of the novel compounds 1, 8, and 9 were evaluated on five human cancer cell lines using the MTT (3-(4,5-dimethylthiazol-2-yl)-2,5-diphenyltetrazolium bromide) method [32, 33, 34]. […] All cells were cultured in RPMI-1640 medium containing 10% fetal bovine serum (FBS), and kept in a humidified atmosphere containing 5% CO2 at 37 °C. […] In brief, the cell suspensions (200 μL, 5 × 10^4 cells/mL) were seeded into 96-well culture plates and kept at 37 °C for 12 h, then the sample solvents (20 μL) were added into each well and further cultured at 37 °C for 24 h. Subsequently, MTT (100 μg) was added into each well and incubated at 37 °C for 4 h. After removal of the 100 μL culture medium, the cells were lysed with 20% SDS-50% DMF (100 μL). The remaining lysates were subjected to measurements of the optical density at 595 nm with a 96-well microtiter plate reader. Reed and Muench’s method was used to calculate IC50 values [32].

in vitro [2] = assay: in vitro; remark: listed apart in the source
Experimental: as §1

in vitro [3] = assay: in vitro; remark: listed apart in the source
Experimental: as §1

in vitro [4] = assay: in vitro; remark: listed apart in the source
Experimental: as §1

in vitro [5] = assay: in vitro; remark: listed apart in the source
Experimental: as §1

Measured: pIC50

CC(=O)OCC(C)=CCCC(C)(O)C1CCC(C)(O)C1C (stereo not shown) [Compound 8, Cyclonerodiol C]
< 4.40: all assays above

CC1C(C(C)(O)CC=CC(C)(C)O)CCC1(C)O (stereo not shown) [Compound 9, Cyclonerodiol D]
< 4.40: all assays above
